Test results reported in US8163909B2, “Substituted hydroxyethyl amine compounds as beta-secretase modulators and methods of use” (Amgen Inc., priority 2007, dated 2012).
pIC50: −log10 of the molar value. Read-outs that look alike come from different tables or passages of the source.

Experiments:
[1] = target: Beta Secretase enzyme (BACE) (Homo sapiens, UniProt P56817); experiment: In vitro enzymatic BACE FRET (fluorescence resonance energy transfer) assay; format: biochemical; details: for IC50: IC50's in uM;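 on all read-outs here: fluorescence read after 1 h with 50 nM quenched peptide substrate spanning the BACE cleavage site, in pH 4.2 acetate buffer containing 10% DMSO and nonionic detergent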
[2] = tested on: Aβ40 in conditioned medium of cells stably expressing Amyloid Precursor Protein (APP); experiment: In vitro BACE cell-based assay (Aβ40 in conditioned medium, sandwich ELISA); details: for IC50: IC50's in uM;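 on all read-outs here: compounds added as a dilution series, secreted peptide quantified by europium time-resolved fluorescence readout, potency fitted from percent of control versus compound concentration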
[3] = BACE enzyme assay, read-out: BACE1 FRET assay (IC50)
[4] = Table 2, read-out: BACE1 FRET assay
[5] = Homo sapiens, HEK293, Table 2, HEK cells, read-out: HEK cell assay
[6] = BACE enzyme assay, read-out: BACE1 FRET assay
[7] = Homo sapiens, HEK293, cell-based assay, HEK cells, read-out: HEK cell assay
[8] = Homo sapiens, HEK293, HEK cells, cell-based assay, read-out: HEK cell assay (IC50)
[9] = BACE enzyme FRET assay, read-out: BACE1 FRET assay (IC50)
[10] = Homo sapiens, HEK293, HEK cell-based assay, read-out: HEK cell assay

Sequence of Beta Secretase enzyme (BACE) (P56817 46-501): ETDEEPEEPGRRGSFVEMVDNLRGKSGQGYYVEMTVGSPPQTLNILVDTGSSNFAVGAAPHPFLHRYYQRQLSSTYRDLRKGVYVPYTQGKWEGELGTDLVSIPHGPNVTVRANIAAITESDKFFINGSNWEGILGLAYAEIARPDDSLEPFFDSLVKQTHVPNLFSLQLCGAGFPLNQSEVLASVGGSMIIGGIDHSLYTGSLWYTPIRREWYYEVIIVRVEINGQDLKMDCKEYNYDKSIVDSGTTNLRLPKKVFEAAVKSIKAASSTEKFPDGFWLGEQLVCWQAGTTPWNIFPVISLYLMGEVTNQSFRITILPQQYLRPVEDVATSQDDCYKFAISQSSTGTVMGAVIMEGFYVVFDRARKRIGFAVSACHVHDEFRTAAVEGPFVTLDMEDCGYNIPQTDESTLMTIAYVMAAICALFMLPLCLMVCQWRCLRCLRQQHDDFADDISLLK

Compound	pIC50 [1, 3]	pIC50 [2, 8]	further results
1-cyclobutyl-N-((1S,2R)-3-(((4′S)-6′-(2,2-dimethylpropyl)-3′,4′-dihydrospiro[cyclobutane-1,2′-pyrano[2,3-b]pyridin]-4′-yl)amino)-1-((4-fluorophenyl)methyl)-2-hydroxypropyl)-5-oxo-3-pyrrolidinecarboxamide [compound 67]	6.33		pIC50 ([2]; HEK cells, cell-based assay, read-out: HEK cell assay (IC50)): 7.20
C[C@H](F)C(=O)N[C@@H](Cc1ccc2c(c1)OCO2)[C@H](O)CN[C@H]1CC2(CCC2)Oc2ncc(CC(C)(C)C)cc21 [Example 483]			pIC50 [1, 4]: 7.74; pIC50 [2, 5]: 7.31
C[C@@H](F)C(=O)N[C@@H](Cc1ccc2c(c1)OCO2)[C@H](O)CN[C@H]1CC2(CCC2)Oc2ncc(CC(C)(C)C)cc21 [Example 484, (2R)-N-((1S,2R)-1-(1,3-benzodioxol-5-ylmethyl)-3-(((4′S)-6′-(2,2-dimethylpropyl)-3′,4′-dihydrospiro[cyclobutane-1,2′-pyrano[2,3-b]pyridin]-4′-yl)amino)-2-hydroxypropyl)-2-fluoropropanamide]			pIC50 [1, 4]: 7.54; pIC50 [2, 5]: 7.25
C#Cc1ccc(C[C@H](NC(=O)COC)[C@H](O)CN[C@H]2CC3(CCC3)Oc3ncc(CC(C)C)cc32)cc1 [Example 855]			IC50 [1, 6]: 0.062 µM; IC50 [2, 7]: 0.174 µM
C#Cc1ccc(C[C@H](NC(=O)COC)[C@H](O)CN[C@H]2CC3(CCC3)Oc3ncc(CC(C)(C)C)cc32)cc1 [Example 885]			IC50 [2, 7]: 0.099 µM
CCO[C@@H](C)C(=O)N[C@@H](Cc1cccc(-c2nccs2)c1)[C@H](O)CN[C@H]1CC2(CCC2)Oc2ncc(CC(C)(C)C)cc21 [Example 893]			IC50 [2, 7]: 0.012 µM
CCO[C@H](C)C(=O)N[C@@H](Cc1cccc(-c2nccs2)c1)[C@H](O)CN[C@H]1CC2(CCC2)Oc2ncc(CC(C)(C)C)cc21 [Example 894]			IC50 [2, 7]: 0.018 µM
COCC(=O)N[C@@H](Cc1ccc2c(c1)OCO2)[C@H](O)CN[C@H]1CC2(CC(F)(F)C2)Oc2ncc(CC(C)(C)C)cc21 [compound 52]	7.38	6.99	
COCC(=O)N[C@@H](Cc1ccc(F)cc1)[C@H](O)CNC1CC2(CC(F)(F)C2)Oc2ncc(CC(C)(C)C)cc21 (stereo partly drawn) [compound 53]	7.96	7.19	
COCC(=O)N[C@@H](Cc1ccccc1)[C@H](O)CNC1CC2(CC(F)(F)C2)Oc2ncc(CC(C)(C)C)cc21 (stereo partly drawn) [compound 54]	8.52	7.18	
CC(=O)N[C@@H](Cc1ccc2c(c1)OCO2)[C@H](O)CN[C@H]1CC2(CC(F)(F)C2)Oc2ncc(CC(C)(C)C)cc21 [compound 55]	7.63	7.08	
CO[C@H](C)C(=O)N[C@@H](Cc1cccc(C#N)c1)[C@H](O)CN[C@H]1CC2(CCC2)Oc2ncc(CC(C)(C)C)cc21 [compound 56]	8.58	8.52	
COCC(=O)N[C@@H](Cc1cccc(C#N)c1)[C@H](O)CN[C@H]1CC2(CCC2)Oc2ncc(CC(C)(C)F)cc21 [compound 57]	8.53	8.28	
CO[C@H](C)C(=O)N[C@@H](Cc1cccc(C#N)c1)[C@H](O)CN[C@H]1CC2(CCC2)Oc2ncc(CC(C)(C)F)cc21 [compound 58]	8.24	8.17	
COC(C(=O)N[C@@H](Cc1ccc(F)cc1)[C@H](O)CN[C@H]1CC2(CCC2)Oc2ncc(CC(C)(C)C)cc21)C(F)(F)F (stereo partly drawn) [compound 59]	6.44	6.77	
CC(C)(C)Cc1cnc2c(c1)[C@@H](NC[C@@H](O)[C@H](Cc1cccc(C#N)c1)NC(=O)[C@H](O)C(F)(F)F)CC1(CCC1)O2 [compound 61]	8.49	8.02	
CC(C)(C)Cc1cnc2c(c1)[C@@H](NC[C@@H](O)[C@H](Cc1cccc(C#N)c1)NC(=O)[C@@H](O)C(F)(F)F)CC1(CCC1)O2 [compound 62]	8.40	8.01	
CO[C@@H](C(=O)N[C@@H](Cc1ccc(F)cc1)[C@H](O)CN[C@H]1CC2(CCC2)Oc2ncc(CC(C)(C)C)cc21)C(F)(F)F [compound 63]	6.59	6.89	
CO[C@H](C(=O)N[C@@H](Cc1ccc(F)cc1)[C@H](O)CN[C@H]1CC2(CCC2)Oc2ncc(CC(C)(C)C)cc21)C(F)(F)F [compound 64]	6.21	7.10	
COC(C(=O)N[C@@H](Cc1cccc(F)c1)[C@H](O)CN[C@H]1CC2(CCC2)Oc2ncc(CC(C)(C)C)cc21)C(F)(F)F (stereo partly drawn) [compound 65]	7.47	6.90	
CC(C)(C)Cc1cnc2c(c1)[C@@H](NC[C@@H](O)[C@H](Cc1cccc(F)c1)NC(=O)C1CN(C3CCC3)C(=O)C1(C)C)CC1(CCC1)O2 (stereo partly drawn) [compound 66]	7.36	5.96	

Compound	pIC50 [1, 3]	pIC50 [2, 8]	further results
CC(C)(C)Cc1cnc2c(c1)[C@@H](NC[C@@H](O)[C@H](Cc1ccc(F)cc1)NC(=O)[C@H](O)C(F)(F)F)CC1(CCC1)O2 [compound 68]	7.31	7.26	
CC(C)(C)Cc1cnc2c(c1)[C@@H](NC[C@@H](O)[C@H](Cc1ccc(F)cc1)NC(=O)[C@@H](O)C(F)(F)F)CC1(CCC1)O2 [compound 69]	7.47	7.11	
CO[C@H](C)C(=O)N[C@@H](Cc1ccc(Cl)c(F)c1)[C@H](O)CN[C@H]1CC2(CCC2)Oc2ncc(CC(C)(C)F)cc21 [compound 70]	7.25	6.86	
CO[C@H](C)C(=O)N[C@@H](Cc1cccc(F)c1F)[C@H](O)CN[C@H]1CC2(CCC2)Oc2ncc(CC(C)(C)F)cc21 [compound 71]	7.47	7.03	
CO[C@H](C)C(=O)N[C@@H](Cc1ccc(F)c(Cl)c1)[C@H](O)CN[C@H]1CC2(CCC2)Oc2ncc(CC(C)(C)F)cc21 [compound 72]	7.54	7.22	
COCC(=O)N[C@@H](Cc1cccc(F)c1)[C@H](O)CN[C@H]1CC2(CCC2)Oc2ncc(CC(C)(C)C(F)(F)F)cc21 [compound 73]	7.79	7.27	
CO[C@H](C)C(=O)N[C@@H](Cc1cccc(F)c1)[C@H](O)CN[C@H]1CC2(CCC2)Oc2ncc(CC(C)(C)C(F)(F)F)cc21 [compound 74]	7.52	7.02	
CO[C@H](C)C(=O)N[C@@H](Cc1ccc(F)cc1)[C@H](O)CN[C@H]1CC2(CCC2)Oc2ncc(CC(C)(C)C(F)(F)F)cc21 [compound 75]	8.18	7.70	
COCC(=O)N[C@@H](Cc1ccc(F)cc1)[C@H](O)CN[C@H]1CC2(CCC2)Oc2ncc(CC(C)(C)C(F)(F)F)cc21 [compound 76]	8.43	7.96	
CC(=O)N[C@@H](Cc1ccc(F)c(OC(F)(F)F)c1)[C@H](O)CN[C@H]1CC2(CCC2)Oc2ncc(CC(C)(C)F)cc21 [compound 77]	8.31	7.80	
COc1cc(C[C@H](NC(C)=O)[C@H](O)CN[C@H]2CC3(CCC3)Oc3ncc(CC(C)(C)C)cc32)ccc1F [compound 78]	8.35	8.12	
COCC(=O)N[C@@H](Cc1ccc(F)c(OC)c1)[C@H](O)CN[C@H]1CC2(CCC2)Oc2ncc(CC(C)(C)C)cc21 [compound 79]	8.20	7.83	
COC(C)C(=O)NC(Cc1ccc2c(c1)OCO2)C(O)CNC1CC2(CC(O)C2)Oc2cnccc21 [compound 245, (2R)—N-((1S,2R)-1-(1,3-benzodioxol-5-ylmethyl)-2-hydroxy-3-(((1r,3R,4′S)-3-hydroxy-3′,4′-dihydrospiro[cyclobutane-1,2′-pyrano[2,3-c]pyridin]-4′-yl)amino)propyl)-2-(methyloxy)propanamide]			pIC50 [1, 9]: 4.40
COCC(=O)N[C@@H](Cc1ccc(F)cc1)[C@H](O)CN[C@H]1C[C@]2(C[C@@H](C#N)C2)Oc2ncc(CC(C)(C)C)cc21 [compound 261, N-((1S,2R)-3-(((1r,3S,4′S)-3-cyano-6′-(2,2-dimethylpropyl)-3′,4′-dihydrospiro[cyclobutane-1,2′-pyrano[2,3-b]pyridin]-4′-yl)amino)-1-((4-fluorophenyl)methyl)-2-hydroxypropyl)-2-(methyloxy)acetamide]			pIC50 [1, 9]: 7.41
CC(=O)NC(Cc1ccc(F)cc1)C(O)CNC1CC2(CC(C#N)C2)Oc2ncc(CC(C)(C)C)cc21 [compound 262, N-((1S,2R)-3-(((1r,3S,4′S)-3-cyano-6′-(2,2-dimethylpropyl)-3′,4′-dihydrospiro[cyclobutane-1,2′-pyrano[2,3-b]pyridin]-4′-yl)amino)-1-((4-fluorophenyl)methyl)-2-hydroxypropyl)acetamide]			pIC50 [1, 9]: 7.33
CC(=O)N[C@@H](Cc1cccc(F)c1)[C@H](O)CN[C@H]1CC2(CCC2)Oc2ncc([C@@H](F)[C@H](C)C(F)(F)F)cc21 [compound 323]			pIC50 ([1]; Table 1, read-out: BACE1 FRET assay): 6.44
COCC(=O)N[C@@H](Cc1cccc(-c2nc(C)cs2)c1)[C@H](O)CN[C@H]1CC2(CCC2)Oc2ncc(CC(C)(C)C)cc21 [compound 758]			IC50 [2, 10]: 0.014 µM
COCC(=O)N[C@@H](Cc1cccc(-c2ccccn2)c1)[C@H](O)CN[C@H]1CC2(CCC2)Oc2ncc(CC(C)(C)C)cc21 [compound 841, N-((1S,2R)-3-(((4′S)-6′-(2,2-dimethylpropyl)-3′,4′-dihydrospiro[cyclobutane-1,2′-pyrano[2,3-b]pyridin]-4′-yl)amino)-2-hydroxy-1-(3-(2-pyridinyl)benzyl)propyl)-2-methoxyacetamide]			IC50 [2, 10]: 0.018 µM
COCC(=O)N[C@@H](Cc1cccc(-c2nccs2)c1F)[C@H](O)CN[C@H]1CC2(CCC2)Oc2ncc(CC(C)(C)C)cc21 [compound 908]			IC50 [2, 7]: 0.1 µM
C#Cc1cccc(C[C@H](NC(=O)COC)[C@H](O)CN[C@H]2CC3(CCC3)Oc3ncc(CC(C)(C)C)cc32)c1F [compound 911]			IC50 [2, 7]: 0.144 µM
COCC(=O)N[C@@H](Cc1cc(Br)cc(OC)c1)[C@H](O)CN[C@H]1CC2(CCC2)Oc2ncc(CC(C)(C)C)cc21 [compound 917]			IC50 [1, 6]: 0.014 µM
